This is an account of results in the supplement of paper PMC10307832.

Holding throughout (experiment): relative viability (nuclei count vs DMSO), 5 days (fraction); higher = more cells survive
Compound in the assay “KN-93 + Pictilisib”: CN(C/C=C/C1=CC=C(C=C1)Cl)CC2=CC=CC=C2N(CCO)S(=O)(=O)C3=CC=C(C=C3)OC [KN-93] + CS(=O)(=O)N1CCN(Cc2cc3nc(-c4cccc5[nH]ncc45)nc(N4CCOCC4)c3s2)CC1 [Pictilisib] (partner 1 µM)
Put shortly:
(§1)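 Lung cancer cell lines were pin-tool dosed in 1536-well plates on the day after seeding, with either a lone drug or a fixed anchor-drug dose plus five library-drug doses (not always all listed) in √10 steps. Nuclei were counted on 4× images after 5 days. Relative viability is the ratio of treated-well to vehicle-well nuclei counts, with each value a median of duplicate plates.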

Compound in the assay “KN-93 + Linsitinib”: CN(C/C=C/C1=CC=C(C=C1)Cl)CC2=CC=CC=C2N(CCO)S(=O)(=O)C3=CC=C(C=C3)OC [KN-93] + C[C@]1(O)C[C@@H](c2nc(-c3ccc4ccc(-c5ccccc5)nc4c3)c3c(N)nccn32)C1 [Linsitinib] (partner 1 µM)
The method, boiled down:
as §1

Compound in the assay “KN-93 + Luminespib”: CN(C/C=C/C1=CC=C(C=C1)Cl)CC2=CC=CC=C2N(CCO)S(=O)(=O)C3=CC=C(C=C3)OC [KN-93] + CCNC(=O)c1noc(-c2cc(C(C)C)c(O)cc2O)c1-c1ccc(CN2CCOCC2)cc1 [Luminespib] (partner 0.01 µM)
Put shortly: as §1

Compound in the assay “KN-93 + Phenformin”: CN(C/C=C/C1=CC=C(C=C1)Cl)CC2=CC=CC=C2N(CCO)S(=O)(=O)C3=CC=C(C=C3)OC [KN-93] + N=C(N)NC(=N)NCCc1ccccc1 [Phenformin] (partner 250 µM)
Put shortly: as §1

Compound in the assay “KN-93 + Crizotinib”: CN(C/C=C/C1=CC=C(C=C1)Cl)CC2=CC=CC=C2N(CCO)S(=O)(=O)C3=CC=C(C=C3)OC [KN-93] + C[C@@H](Oc1cc(-c2cnn(C3CCNCC3)c2)cnc1N)c1c(Cl)ccc(F)c1Cl [Crizotinib] (partner 1 µM)
Put shortly: as §1

Turning to NCI-H2347, the relative viability in the assay with KN-93 + Pictilisib (first compound 0.08 µM) is 0.572; with KN-93 + Pictilisib (first compound 0.253 µM), 0.616; in the assay with KN-93 + Pictilisib (first compound 2.53 µM), 0.696; with KN-93 + Pictilisib (first compound 8 µM) it was 0.543; with KN-93 + Linsitinib (first compound 0.08 µM), 1.07; with KN-93 + Linsitinib (first compound 0.253 µM), 0.922. Further, the relative viability with KN-93 + Linsitinib (first compound 2.53 µM) worked out at 0.918; with KN-93 + Linsitinib (first compound 8 µM), 0.797; with KN-93 + Luminespib (first compound 0.08 µM) it was 0.618; in the assay with KN-93 + Luminespib (first compound 0.253 µM) it was 0.728; with KN-93 + Luminespib (first compound 2.53 µM), 0.458; with KN-93 + Luminespib (first compound 8 µM) it was 0.511. The relative viability with KN-93 + Phenformin (first compound 0.08 µM) is 0.517; with KN-93 + Phenformin (first compound 0.253 µM), 0.376; with KN-93 + Phenformin (first compound 2.53 µM), 0.55; with KN-93 + Phenformin (first compound 8 µM), 0.362; with KN-93 + Crizotinib (first compound 0.08 µM), 0.686; in the assay with KN-93 + Crizotinib (first compound 0.253 µM), 0.731. Further, the results for the relative viability in the assay with KN-93 + Crizotinib (first compound 2.53 µM) and in the assay with KN-93 + Crizotinib (first compound 8 µM) were 0.739 and 0.463, respectively.

For the cell line 201T, the relative viability with KN-93 + Pictilisib (first compound 0.08 µM) was determined as 0.756; with KN-93 + Pictilisib (first compound 0.253 µM), 0.583; with KN-93 + Pictilisib (first compound 2.53 µM), 0.672; with KN-93 + Pictilisib (first compound 8 µM) it was 0.63; with KN-93 + Linsitinib (first compound 0.08 µM) it was 1.04; with KN-93 + Linsitinib (first compound 0.253 µM) it was 0.968. For the same cell line, the relative viability worked out at 0.995 in the assay with KN-93 + Linsitinib (first compound 2.53 µM); 0.837 with KN-93 + Linsitinib (first compound 8 µM); 1.04 with KN-93 + Luminespib (first compound 0.08 µM); 1.16 with KN-93 + Luminespib (first compound 0.253 µM); 0.958 with KN-93 + Luminespib (first compound 2.53 µM); 0.697 in the assay with KN-93 + Luminespib (first compound 8 µM). Besides, the relative viability in the assay with KN-93 + Phenformin (first compound 0.08 µM) was 0.47; with KN-93 + Phenformin (first compound 0.253 µM), 0.424; with KN-93 + Phenformin (first compound 2.53 µM) it was 0.51; with KN-93 + Phenformin (first compound 8 µM), 0.452; with KN-93 + Crizotinib (first compound 0.08 µM), 1.01; in the assay with KN-93 + Crizotinib (first compound 0.253 µM), 1.05. Further, the relative viability with KN-93 + Crizotinib (first compound 2.53 µM) was 1.01; with KN-93 + Crizotinib (first compound 8 µM), 0.973.

Turning to NCI-H2009, the relative viability with KN-93 + Pictilisib (first compound 0.08 µM) is 0.841; in the assay with KN-93 + Pictilisib (first compound 0.253 µM) it was 1.01; with KN-93 + Pictilisib (first compound 2.53 µM), 0.761; in the assay with KN-93 + Pictilisib (first compound 8 µM), 0.345; with KN-93 + Linsitinib (first compound 0.08 µM) it was 1.16; with KN-93 + Linsitinib (first compound 0.253 µM), 1.24. In addition, the relative viability with KN-93 + Linsitinib (first compound 2.53 µM) came to 1.17; with KN-93 + Linsitinib (first compound 8 µM), 0.94; in the assay with KN-93 + Luminespib (first compound 0.08 µM), 1.05; with KN-93 + Luminespib (first compound 0.253 µM), 1.11; in the assay with KN-93 + Luminespib (first compound 2.53 µM), 1.08; with KN-93 + Luminespib (first compound 8 µM), 0.746. Moreover, the relative viability with KN-93 + Phenformin (first compound 0.08 µM) stood at 0.426; with KN-93 + Phenformin (first compound 0.253 µM), 0.557; with KN-93 + Phenformin (first compound 2.53 µM), 0.492; with KN-93 + Phenformin (first compound 8 µM), 0.317; with KN-93 + Crizotinib (first compound 0.08 µM), 1.18; with KN-93 + Crizotinib (first compound 0.253 µM) it was 1.1. Further, the relative viability in the assay with KN-93 + Crizotinib (first compound 2.53 µM) was found to be 1.04; with KN-93 + Crizotinib (first compound 8 µM), 0.474.

With CAL-12T, the relative viability in the assay with KN-93 + Pictilisib (first compound 0.08 µM) came out at 0.498; in the assay with KN-93 + Pictilisib (first compound 0.253 µM) it was 0.367; in the assay with KN-93 + Pictilisib (first compound 2.53 µM), 0.605; in the assay with KN-93 + Pictilisib (first compound 8 µM), 0.326; in the assay with KN-93 + Linsitinib (first compound 0.08 µM), 0.926; with KN-93 + Linsitinib (first compound 0.253 µM), 0.766. In addition, the relative viability in the assay with KN-93 + Linsitinib (first compound 2.53 µM) is 0.694; with KN-93 + Linsitinib (first compound 8 µM), 0.729; with KN-93 + Luminespib (first compound 0.08 µM) it was 0.208; with KN-93 + Luminespib (first compound 0.253 µM) it was 0.27; in the assay with KN-93 + Luminespib (first compound 2.53 µM), 0.573; with KN-93 + Luminespib (first compound 8 µM) it was 0.336. Further, the relative viability with KN-93 + Phenformin (first compound 0.08 µM) worked out at 0.557; with KN-93 + Phenformin (first compound 0.253 µM), 0.474; with KN-93 + Phenformin (first compound 2.53 µM) it was 0.563; with KN-93 + Phenformin (first compound 8 µM) it was 0.407; with KN-93 + Crizotinib (first compound 0.08 µM) it was 0.623; with KN-93 + Crizotinib (first compound 0.253 µM) it was 0.834. The relative viability turned out to be 0.531 in the assay with KN-93 + Crizotinib (first compound 2.53 µM) and 0.339 with KN-93 + Crizotinib (first compound 8 µM).

Regarding NCI-H322M, the relative viability with KN-93 + Pictilisib (first compound 0.08 µM) was found to be 0.496; in the assay with KN-93 + Pictilisib (first compound 0.253 µM), 0.423; with KN-93 + Pictilisib (first compound 2.53 µM) it was 0.531; with KN-93 + Pictilisib (first compound 8 µM), 0.51; with KN-93 + Linsitinib (first compound 0.08 µM), 0.988; in the assay with KN-93 + Linsitinib (first compound 0.253 µM), 0.935. In addition, the relative viability with KN-93 + Linsitinib (first compound 2.53 µM) worked out at 0.958; with KN-93 + Linsitinib (first compound 8 µM) it was 0.803; with KN-93 + Luminespib (first compound 0.08 µM), 0.921; in the assay with KN-93 + Luminespib (first compound 0.253 µM), 0.793; in the assay with KN-93 + Luminespib (first compound 2.53 µM), 0.954; with KN-93 + Luminespib (first compound 8 µM), 0.752. Moreover, the relative viability in the assay with KN-93 + Phenformin (first compound 0.08 µM) was 0.753; in the assay with KN-93 + Phenformin (first compound 0.253 µM), 0.746; with KN-93 + Phenformin (first compound 2.53 µM), 0.838; with KN-93 + Phenformin (first compound 8 µM), 0.604; with KN-93 + Crizotinib (first compound 0.08 µM), 1.08; with KN-93 + Crizotinib (first compound 0.253 µM) it was 0.982. Further, the values for the relative viability in the assay with KN-93 + Crizotinib (first compound 2.53 µM) and with KN-93 + Crizotinib (first compound 8 µM) were 0.896 and 0.905, respectively.

In the case of HARA, the relative viability in the assay with KN-93 + Pictilisib (first compound 0.08 µM) came out at 0.366; with KN-93 + Pictilisib (first compound 0.253 µM), 0.36; with KN-93 + Pictilisib (first compound 2.53 µM) it was 0.3; with KN-93 + Pictilisib (first compound 8 µM), 0.2; with KN-93 + Linsitinib (first compound 0.08 µM) it was 0.84; with KN-93 + Linsitinib (first compound 0.253 µM) it was 1.11. Besides, the relative viability with KN-93 + Linsitinib (first compound 2.53 µM) stood at 0.923; in the assay with KN-93 + Linsitinib (first compound 8 µM) it was 0.527; with KN-93 + Luminespib (first compound 0.08 µM) it was 0.659; with KN-93 + Luminespib (first compound 0.253 µM), 1.15; with KN-93 + Luminespib (first compound 2.53 µM) it was 0.449; with KN-93 + Luminespib (first compound 8 µM), 0.284. Also, the relative viability was determined as 0.329 in the assay with KN-93 + Phenformin (first compound 0.08 µM); 0.477 with KN-93 + Phenformin (first compound 0.253 µM); 0.543 with KN-93 + Phenformin (first compound 2.53 µM); 0.148 with KN-93 + Phenformin (first compound 8 µM); 1.04 with KN-93 + Crizotinib (first compound 0.08 µM); 1.51 in the assay with KN-93 + Crizotinib (first compound 0.253 µM). The relative viability with KN-93 + Crizotinib (first compound 2.53 µM) turned out to be 0.946; in the assay with KN-93 + Crizotinib (first compound 8 µM), 0.51.

NCI-H650: the relative viability with KN-93 + Pictilisib (first compound 0.08 µM) was found to be 0.906; in the assay with KN-93 + Pictilisib (first compound 0.253 µM), 0.892; with KN-93 + Pictilisib (first compound 2.53 µM), 1.06; with KN-93 + Pictilisib (first compound 8 µM), 0.605; in the assay with KN-93 + Linsitinib (first compound 0.08 µM) it was 0.893; with KN-93 + Linsitinib (first compound 0.253 µM), 0.836. The relative viability with KN-93 + Linsitinib (first compound 2.53 µM) amounted to 1.21; with KN-93 + Linsitinib (first compound 8 µM), 0.562; with KN-93 + Luminespib (first compound 0.08 µM), 0.697; in the assay with KN-93 + Luminespib (first compound 0.253 µM), 0.76; in the assay with KN-93 + Luminespib (first compound 2.53 µM), 0.855; with KN-93 + Luminespib (first compound 8 µM), 0.579. The relative viability with KN-93 + Phenformin (first compound 0.08 µM) was 0.481; in the assay with KN-93 + Phenformin (first compound 0.253 µM), 0.47; with KN-93 + Phenformin (first compound 2.53 µM), 0.449; in the assay with KN-93 + Phenformin (first compound 8 µM), 0.414; with KN-93 + Crizotinib (first compound 0.08 µM), 0.866; with KN-93 + Crizotinib (first compound 0.253 µM) it was 0.735. In addition, the relative viability was found to be 0.772 with KN-93 + Crizotinib (first compound 2.53 µM) and 0.488 with KN-93 + Crizotinib (first compound 8 µM).
